Data published in article PMC6405842, “Identification of a novel scaffold for a small molecule GPR139 receptor agonist” (Scientific Reports, 2019).
Read-outs that look alike come from different tables or passages of the source.

Experiments:
[1] = molecular target: T1, GPR139 (Homo sapiens, UniProt Q6DWJ6); conditions: proposed endogenous GPR139 ligands; cited from earlier work
T1 construct: host or cells: CHO-k1
T1 sequence (Q6DWJ6 1-353): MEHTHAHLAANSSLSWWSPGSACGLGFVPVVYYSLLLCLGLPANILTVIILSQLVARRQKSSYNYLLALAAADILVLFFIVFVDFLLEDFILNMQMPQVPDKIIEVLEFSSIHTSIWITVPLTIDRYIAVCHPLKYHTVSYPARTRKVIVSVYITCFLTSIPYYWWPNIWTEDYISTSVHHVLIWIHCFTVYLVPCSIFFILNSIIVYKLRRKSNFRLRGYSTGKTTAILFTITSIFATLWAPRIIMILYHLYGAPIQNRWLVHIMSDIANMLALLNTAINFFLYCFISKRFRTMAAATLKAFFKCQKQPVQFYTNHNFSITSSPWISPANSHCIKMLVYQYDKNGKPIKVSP

[2] = molecular target: T1, GPR139; test: Fluo-4 calcium mobilization assay, agonist mode, concentration-response curves in CHO-GPR139 cells; type: cell-based; conditions: for pEC50 ± S.E.M. / EC50 / Emax ± S.E.M.: CHO-GPR139 cells; for EC50: at least three independent concentration-response curves in duplicate, read-out: EC50; for Emax ± S.E.M.: normalized to buffer (0%) and 8 μM 1a (100%)
Experimental: (§1) All compounds were tested on a CHO-k1 cell line stably expressing GPR139 (CHO-GPR139)[11] kindly provided by H. Lundbeck A/S, Denmark. GPR139-specific responses were assessed using a CHO-k1 cell line stably expressing the muscarinic acetylcholine receptor M1 (CHO-M1) (The Missouri S&T cDNA Resource Center, # CEM100TN00). The CHO-GPR139 cells were grown in Dulbecco’s modified Eagle’s medium (DMEM) F12-Kaighn’s (ThermoFisher Scientific # 21127) supplemented with 10% dialyzed fetal bovine serum (United States origin; ThermoFisher Scientific # 26400), 1% GlutaMAX-I (100X) (ThermoFisher Scientific # 35050061), and 100 units/mL penicillin and 100 µg/mL streptomycin (ThermoFisher Scientific # 15140122) and 1 mg/mL geneticin (ThermoFisher Scientific # 11811031). The CHO-M1 cells were grown in Ham’s F12 (ThermoFisher Scientific # 21765) supplemented with 10% fetal bovine serum (South American origin; ThermoFisher Scientific # 10270) + 100 units/mL penicillin and streptomycin and 0.25 mg/mL geneticin.
The Fluo-4 Ca^2+-assay was performed as described previously, with minor modifications. After 1 hour incubation with the Fluo-4 dye, the CHO-GPR139 cells were washed with 100 μL HEPES buffer (Hank’s Balanced Salt Solution (HBBS, ThermoFisher Scientific # 14175053) supplemented with 20 mM HEPES, 1 mM MgCl2, 1 mM CaCl2, pH = 7.4) and the compound library was then added in concentrations between 25–63 μM dissolved in HEPES buffer (supplemented with 2.5 mM probenecid and 1% DMSO) and pre-incubated for 10 min at 37 °C. 33 μL of 3.2 μM 1a were added automatically after baseline measurements. […] This set-up allowed us to identify both antagonists and agonists (Fig. 2).
Each compound, for which a concentration response curve was made, was tested at least three times in duplicate measurements. After the incubation with the Fluo-4 dye and a wash, 100 μL HEPES buffer (supplemented with 2.5 mM probenecid) was added to each well and incubated for 10 minutes at 37 °C before recording. 33 μL of compounds (4× concentrated) were added automatically after baseline measurements.
(§2) The Ca^2+ and ERK responses were normalized as indicated and the concentration response curves were fitted by Prism 6 software (GraphPad) using nonlinear regression in a sigmoidal model with variable slope, as has been previously described.

[3] = molecular target: T2, muscarinic acetylcholine receptor M1 (Homo sapiens, UniProt P11229); test: Calcium mobilization counter-screen in CHO-M1 cells; type: cell-based; conditions: concentration from which the calcium response is nonspecific
T2 construct: host or cells: CHO-k1
T2 sequence (P11229 1-460): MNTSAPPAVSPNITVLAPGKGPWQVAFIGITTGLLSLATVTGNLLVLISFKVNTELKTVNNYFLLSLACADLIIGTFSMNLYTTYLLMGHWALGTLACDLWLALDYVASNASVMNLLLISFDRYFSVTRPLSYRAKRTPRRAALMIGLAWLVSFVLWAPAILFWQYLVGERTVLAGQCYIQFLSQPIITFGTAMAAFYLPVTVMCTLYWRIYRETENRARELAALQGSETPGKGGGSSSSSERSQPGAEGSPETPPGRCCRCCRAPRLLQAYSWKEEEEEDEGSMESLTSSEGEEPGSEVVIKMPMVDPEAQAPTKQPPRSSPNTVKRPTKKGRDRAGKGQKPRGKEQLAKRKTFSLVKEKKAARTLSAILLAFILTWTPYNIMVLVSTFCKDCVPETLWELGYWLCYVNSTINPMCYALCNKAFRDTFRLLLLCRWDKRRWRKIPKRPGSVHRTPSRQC
Experimental: as §1
The primary screening of 4,000 diverse screening compounds on GPR139, led us to identify 108 initial actives in GPR139-expressing cells. […] We excluded compounds that had (1) an effect on another simultaneously tested GPCR (data not shown), (2) reactive groups, or (3) poor predicted solubility. 52 of the active compounds were re-purchased for validation, which were tested at three concentrations (100, 50 and 25 μM) using the same methodology as in the screening campaign. […] None of the 11 hits promoted calcium mobilization in the M1 receptor cells (data not shown). The 11 hits were then screened in pure agonist mode (i.e., without the presence of 1a) to evaluate if they were agonists or antagonists (Fig. 3 and Supplementary Table S1). All 11 hits were agonists.
When screening the compounds as antagonists they were pre-incubated for 10 min as in the HTS. 33 μL of 3.2 μM 1a on the CHO-GPR139 cells or 20 μM carbachol on the CHO-M1 cells were added automatically after baseline measurements.

[4] = molecular target: T1, GPR139; test: Phospho-ERK1/2 HTRF assay in CHO-GPR139 cells; type: cell-based; conditions: ERK phosphorylation; for pEC50 ± SEM / EC50: CHO-GPR139 cells
Experimental: All compounds were tested on a CHO-k1 cell line stably expressing GPR139 (CHO-GPR139)[11] kindly provided by H. Lundbeck A/S, Denmark. GPR139-specific responses were assessed using a CHO-k1 cell line stably expressing the muscarinic acetylcholine receptor M1 (CHO-M1) (The Missouri S&T cDNA Resource Center, # CEM100TN00).
Phospho-ERK measurements were made using the Advanced Phospho-ERK1/2 (Thr202/Tyr204) HTRF kit by Cisbio (Codolet, France). Approximately 24 hours prior to the experiment, CHO-GPR139 cells were plated at 50,000 cells/well onto a 96-well plate and cultured as detailed above. Approximately 6 hours later, the media was aspirated, replaced with 50 μL serum-free media, and the cells were allowed to serum starve overnight. The day of the experiment, serial dilutions of the test compounds and controls were made in serum-free media at 2x final concentration. 50 μL of test compounds were added directly to the appropriate wells for 5 minute stimulation at 37 °C. At this point, the media and compounds were rapidly aspirated, lysis/blocking buffer was added, and cells were lysed on a shaker for 30 minutes at room temperature.
as §2

[5] = 5 minute stimulation, read-out: EC50
[6] = expressed relative to FBS positive control

| Molecule | EC50 [1] [nM] | pEC50 ± S.E.M. [2] | EC50 [2] [nM] | Emax ± S.E.M. [2] [%] | Note: Nonspecific ≥ concentration [3] | pEC50 ± SEM [4] | EC50 [4, 5] [nM] | Emax ± SEM [4, 6] | EC80 concentration ([2]; used for second stimulation in the screen) [nM] | EC50 ([4]; read-out: pEC50 ± SEM (converted)) [nM] | Emax [4, 6] [%] |
| --- | --- | --- | --- | --- | --- | --- | --- | --- | --- | --- | --- |
| ACTH: adrenocorticotropic hormone, proposed endogenous GPR139 ligand (SYSMEHFRWGKPVGKKRRPVKVYPNGAEDESAEAFPLEF; Corticotropin; UniProt P01189 138-176, looked up) | 2100 | – | – | – | – | – | – | – | – | – | – |
| CC1Cc2ccccc2N1C(=O)CN1C(=O)NC(C)(c2ccc3c(c2)OCCO3)C1=O (stereo not shown) [AC208] | – | 6.05 ± 0.60 | 880 | 134 ± 26 | Nonspecific ≥ 30 μM | – | – | – | – | – | – |
| CC1(c2ccc3c(c2)OCO3)NC(=O)N(CC(=O)c2ccc(Cl)s2)C1=O (stereo not shown) [AC134] | – | 6.09 ± 0.15 | 800 | 103 ± 5 | Nonspecific ≥ 40 μM | – | – | – | – | – | – |
| CC(C)COCCCNC(=O)NC(C)c1ccc(Cl)cc1Cl (stereo not shown) [AC183] | – | 6.74 ± 0.19 | 180 | 110 ± 10 | – | 7.41 ± 0.25 | 39 | 64.38 ± 5.28 | – | – | – |
| CC(=O)c1c(C)[nH]c(C(=O)CN2C(=O)NC(C)(c3ccc4c(c3)OCCO4)C2=O)c1C (stereo not shown) [AC123] | – | 6.13 ± 0.14 | 740 | 104 ± 1 | Nonspecific ≥ 10 μM | – | – | – | – | – | – |
| CCCCC/C=C/C/C=C/CCCCCCCC(=O)NC(C)c1ccccc1 (stereo not shown) [AC223] | – | – | – | – | Nonspecific ≥ 50 μM | – | – | – | – | – | – |
| COc1cccc(C(=O)CN2C(=O)NC(C)(c3ccc(Cl)cc3)C2=O)c1 (stereo not shown) [AC225] | – | 6.56 ± 0.05 | 280 | 120 ± 5 | Nonspecific ≥ 10 μM | – | – | – | – | – | – |
| COc1cc(OC)cc(C(=O)NN2C(=O)NC(C)(c3ccccc3)C2=O)c1 (stereo not shown) [AC224] | – | 7.03 ± 0.02 | 90 | 106 ± 1 | – | 7.51 ± 0.28 | 31 | 69.37 ± 8.01 | – | – | – |
| CCc1cccc2c(C(=O)CN3C(=O)NC(C)(c4ccc5c(c4)OCO5)C3=O)c[nH]c12 (stereo not shown) [AC206] | – | 6.42 ± 0.06 | 380 | 94 ± 3 | Nonspecific ≥ 100 μM | – | – | – | – | – | – |
| COc1cc(OC)cc(C(=O)NNC(=O)Nc2cccc3ccccc23)c1 [1a, reference compound] | – | – | – | – | – | – | – | – | 800 | 28.2 | 81.5 ± 4.12 |
| Cc1ccc(C(C)NC(=O)NCC(=O)NCC2CC2)cc1F (stereo not shown) [AC177] | – | 7.02 ± 0.11 | 90 | 103 ± 1 | – | 7.65 ± 0.13 | 22 | 79.10 ± 3.19 | – | – | – |
